Where two headings read alike, the source gives them in different places.
Legend:
[1] = Maximum plasma concentrations achieved in clinical studies; format: in vivo, human; settings: calculated from reported ng/mL and molecular weight
[2] = clinical studies, human plasma, cited from earlier work
[3] = target: α7 NNRs (Rattus norvegicus, UniProt Q05941); test: Epibatidine-evoked [3H]-norepinephrine release from rat hippocampal slices; format: cell-based
[4] = target: rat α7 NNRs (Rattus norvegicus, UniProt Q05941); test: ACh-evoked currents; format: cell-based; settings: for pseudo-Hill slope (nH): variable slope sigmoid fit of inhibition of 60 μM ACh-evoked currents
[5] = target: presynaptic naturally-expressed α4β2-containing nicotinic receptors (Rattus norvegicus, UniProt P09483+P12390); test: Nicotine-evoked [3H]-dopamine release from rat striatal synaptosomes; format: biochemical; settings: read-out: DA Release IC50, 10 μM nicotine-evoked [3H]-dopamine release, mean (95% CI)
[6] = target: recombinant α4β2 NNRs expressed in SH-EP1 cells (Homo sapiens, UniProt P17787+P43681); test: [3H]-nicotine binding to recombinant α4β2 NNRs in SH-EP1 cell membranes; settings: 5 nM [3H]-nicotine, test compound up to 100 μM
[7] = target: α7 NNR binding sites in rat hippocampal preparations (Rattus norvegicus, UniProt Q05941); test: [3H]-methyllycaconitine competition binding to rat hippocampal membranes; settings: 5 nM [3H]-methyllycaconitine, test compound up to 100 μM
[8] = target: α4β2 nicotinic receptors stably transfected in SH-EP1 cells (Homo sapiens, UniProt P17787+P43681); test: 86Rb+ efflux in α4β2/SH-EP1 cells; format: cell-based; settings: for extent of inhibition of nicotine-evoked 86Rb+ efflux: 10 μM nicotine; for effect on basal 86Rb+ efflux: compound alone, no agonist (data not shown); for extent of inhibition of TC-1827-evoked 86Rb+ efflux: 100 μM TC-1827
Chain of α4β2 nicotinic receptors stably transfected in SH-EP1 cells (P43681 29-627 limits assumed): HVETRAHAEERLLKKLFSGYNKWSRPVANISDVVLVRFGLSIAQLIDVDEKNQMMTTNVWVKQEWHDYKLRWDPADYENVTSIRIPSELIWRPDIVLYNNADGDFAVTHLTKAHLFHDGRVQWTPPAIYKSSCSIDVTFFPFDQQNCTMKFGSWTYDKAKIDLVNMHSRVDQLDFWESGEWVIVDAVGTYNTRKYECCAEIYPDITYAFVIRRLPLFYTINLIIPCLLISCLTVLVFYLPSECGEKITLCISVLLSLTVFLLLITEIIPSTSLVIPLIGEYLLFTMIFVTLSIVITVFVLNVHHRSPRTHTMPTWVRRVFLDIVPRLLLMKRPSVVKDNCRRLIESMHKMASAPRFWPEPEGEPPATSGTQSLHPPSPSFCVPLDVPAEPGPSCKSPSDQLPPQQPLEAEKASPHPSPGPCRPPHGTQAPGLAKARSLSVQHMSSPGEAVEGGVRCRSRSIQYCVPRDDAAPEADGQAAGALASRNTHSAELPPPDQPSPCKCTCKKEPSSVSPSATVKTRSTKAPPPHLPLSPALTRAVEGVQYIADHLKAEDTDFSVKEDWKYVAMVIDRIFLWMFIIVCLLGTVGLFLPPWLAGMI
Chain of α4β2 nicotinic receptors stably transfected in SH-EP1 cells (P17787 26-502): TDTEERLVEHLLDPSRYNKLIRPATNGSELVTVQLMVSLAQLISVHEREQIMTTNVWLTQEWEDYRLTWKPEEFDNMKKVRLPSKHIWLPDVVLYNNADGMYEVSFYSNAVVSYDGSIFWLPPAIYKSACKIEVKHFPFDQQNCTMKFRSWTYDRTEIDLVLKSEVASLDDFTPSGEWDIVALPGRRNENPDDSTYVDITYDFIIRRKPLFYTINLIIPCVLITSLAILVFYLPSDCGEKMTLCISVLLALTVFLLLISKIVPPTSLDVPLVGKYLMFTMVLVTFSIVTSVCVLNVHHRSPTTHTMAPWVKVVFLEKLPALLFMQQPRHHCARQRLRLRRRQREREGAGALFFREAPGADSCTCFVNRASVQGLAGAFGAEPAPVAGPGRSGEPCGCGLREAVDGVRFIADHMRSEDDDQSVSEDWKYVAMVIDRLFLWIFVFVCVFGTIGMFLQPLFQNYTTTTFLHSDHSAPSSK

Chain of recombinant α4β2 NNRs expressed in SH-EP1 cells (P43681 29-627 limits assumed): as the sequence (P43681 29-627 limits assumed) above
Chain of recombinant α4β2 NNRs expressed in SH-EP1 cells (P17787 26-502): as the sequence (P17787 26-502) above
Chain of rat α7 NNRs (Q05941 23-502): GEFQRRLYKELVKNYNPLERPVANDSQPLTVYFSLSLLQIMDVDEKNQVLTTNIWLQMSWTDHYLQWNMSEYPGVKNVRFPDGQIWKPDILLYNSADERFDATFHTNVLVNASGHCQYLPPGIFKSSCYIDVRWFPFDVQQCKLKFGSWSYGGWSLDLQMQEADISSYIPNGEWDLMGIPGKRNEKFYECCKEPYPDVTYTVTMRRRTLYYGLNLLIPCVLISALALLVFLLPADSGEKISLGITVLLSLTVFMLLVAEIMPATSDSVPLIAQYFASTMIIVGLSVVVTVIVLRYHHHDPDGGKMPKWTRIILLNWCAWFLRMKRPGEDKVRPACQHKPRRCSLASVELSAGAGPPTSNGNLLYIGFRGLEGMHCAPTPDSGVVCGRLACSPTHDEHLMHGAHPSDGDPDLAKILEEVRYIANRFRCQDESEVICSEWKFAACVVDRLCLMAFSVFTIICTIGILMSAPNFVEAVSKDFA
Chain of presynaptic naturally-expressed α4β2-containing nicotinic receptors (P09483 31-630): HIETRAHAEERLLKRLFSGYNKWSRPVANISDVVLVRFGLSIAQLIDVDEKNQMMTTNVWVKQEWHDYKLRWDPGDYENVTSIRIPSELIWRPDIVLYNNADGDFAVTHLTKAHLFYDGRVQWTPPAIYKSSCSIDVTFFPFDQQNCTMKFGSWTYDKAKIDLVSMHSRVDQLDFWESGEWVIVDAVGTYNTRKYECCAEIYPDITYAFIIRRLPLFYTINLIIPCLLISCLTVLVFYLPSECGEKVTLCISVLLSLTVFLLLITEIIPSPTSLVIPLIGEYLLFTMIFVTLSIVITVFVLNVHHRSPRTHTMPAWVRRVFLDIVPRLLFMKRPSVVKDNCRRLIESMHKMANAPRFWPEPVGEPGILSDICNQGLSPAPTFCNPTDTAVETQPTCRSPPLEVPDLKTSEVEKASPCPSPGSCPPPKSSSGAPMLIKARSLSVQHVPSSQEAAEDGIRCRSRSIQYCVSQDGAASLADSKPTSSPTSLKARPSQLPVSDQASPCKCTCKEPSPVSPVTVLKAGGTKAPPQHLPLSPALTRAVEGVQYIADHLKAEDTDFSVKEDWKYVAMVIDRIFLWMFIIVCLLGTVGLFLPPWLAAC
Chain of presynaptic naturally-expressed α4β2-containing nicotinic receptors (P12390 25-500): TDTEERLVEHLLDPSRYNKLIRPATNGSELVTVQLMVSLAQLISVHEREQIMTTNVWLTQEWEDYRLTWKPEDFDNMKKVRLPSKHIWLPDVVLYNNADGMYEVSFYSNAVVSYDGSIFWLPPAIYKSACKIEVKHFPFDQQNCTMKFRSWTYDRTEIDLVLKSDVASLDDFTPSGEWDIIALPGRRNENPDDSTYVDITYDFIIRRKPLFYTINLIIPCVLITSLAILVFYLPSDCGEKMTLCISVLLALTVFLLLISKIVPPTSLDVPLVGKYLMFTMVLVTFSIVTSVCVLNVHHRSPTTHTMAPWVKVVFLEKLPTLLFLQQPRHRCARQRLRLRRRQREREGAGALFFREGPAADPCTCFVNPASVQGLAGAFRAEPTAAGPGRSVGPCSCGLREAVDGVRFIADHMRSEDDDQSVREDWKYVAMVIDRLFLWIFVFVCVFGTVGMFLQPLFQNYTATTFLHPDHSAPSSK
Chain of α7 NNR binding sites in rat hippocampal preparations (Q05941 23-502): as the sequence (Q05941 23-502) above
Chain of α7 NNRs (Q05941 23-502): as above

Structure (SMILES): OCCOCCN1CCN(C2=Nc3ccccc3Sc3ccccc32)CC1 [Quetiapine, quetiapine]
- Max. Plasma Levels ([1]; ref Aichhorn et al., 2006): 1.3 µM
- Max. Plasma Levels ([1]; ref Grimm et al., 2006): 2.7 µM
- Max. Plasma Levels ([1]; ref Lin et al., 2004): 0.24 µM
- Max. Plasma Levels ([2]; ref Aichhorn et al., 2006): 491 ng/mL
- Max. Plasma Levels ([2]; ref Grimm et al., 2006): 1042 ng/mL
- Max. Plasma Levels ([2]; ref Lin et al., 2004): 91 ng/mL
- Max. Plasma Levels ([2]; ref Tauscher-Wisniewski et al., 2002): 1454 ng/mL

Structure (SMILES): CN(C)CCCN1c2ccccc2Sc2ccc(Cl)cc21 [Chlorpromazine, chlorpromazine]
- IC50 [3]: 1700 nM
- IC50 [4]: 9100 nM
- pseudo-Hill slope (nH) [4]: −0.84
- IC50 [5]: 2800 nM
- inhibition of [3H]-nicotine binding [6]: None of the compounds tested inhibited binding
- Max. Plasma Levels ([1]; ref Chetty and Miller, 2001): 2.4 µM
- Max. Plasma Levels ([1]; ref Chetty et al., 1996): 1.2 µM
- Max. Plasma Levels ([2]; ref Chetty and Miller, 2001): 839 ng/mL
- Max. Plasma Levels ([2]; ref Chetty et al., 1996): 422 ng/mL
- Max. Plasma Levels ([2]; ref Della Corte et al., 1993): 124 ng/mL
- inhibition of [3H]-methyllycaconitine binding [7]: None of the compounds tested inhibited binding

Structure (SMILES): O=C(CCCN1CCC(O)(c2ccc(Cl)cc2)CC1)c1ccc(F)cc1 [Haloperidol, haloperidol]
- inhibition of [3H]-nicotine binding [6]: None of the compounds tested inhibited binding
- Max. Plasma Levels ([1]; ref Roh et al., 2001): 0.23 µM
- Max. Plasma Levels ([2]; ref Roh et al., 2001): 86 ng/mL
- extent of inhibition of nicotine-evoked 86Rb+ efflux [8]: completely inhibited
- effect on basal 86Rb+ efflux [8]: None of these compounds affected the basal

Structure (SMILES): Clc1ccc2c(c1)N=C(N1CCNCC1)c1ccccc1N2 [N-desmethylclozapine]
- IC50 [3]: 2200 nM
- IC50 [4]: 3200 nM
- activity at 6 µM ([4]; read-out: maximal ACh net charge response in the presence of inhibitor): 37.5 ± 5%
- pseudo-Hill slope (nH) [4]: −1.3
- IC50 [5]: 2100 nM
- inhibition of [3H]-nicotine binding [6]: None of the compounds tested inhibited binding
- Max. Plasma Levels ([1]; ref Dumortier et al., 1998): 1.9 µM
- Max. Plasma Levels ([1]; ref Flanagan et al., 2003): 1.3 µM
- Max. Plasma Levels ([1]; ref Wong et al., 2006): 2.3 µM
- Max. Plasma Levels ([2]; ref Dumortier et al., 1998): 580 ng/mL
- Max. Plasma Levels ([2]; ref Flanagan et al., 2003): 420 ng/mL
- Max. Plasma Levels ([2]; ref Wong et al., 2006): 720 ng/mL
- IC50 [8]: 2100 nM
- extent of inhibition of nicotine-evoked 86Rb+ efflux [8]: completely inhibited
- extent of inhibition of TC-1827-evoked 86Rb+ efflux [8]: fully inhibited
- effect on basal 86Rb+ efflux [8]: None of these compounds affected the basal
- inhibition of [3H]-methyllycaconitine binding [7]: None of the compounds tested inhibited binding

Structure (SMILES): CN1CCN(C2=Nc3cc(Cl)ccc3Nc3ccccc32)CC1 [Clozapine, clozapine]
- inhibition of [3H]-nicotine binding [6]: None of the compounds tested inhibited binding
- Max. Plasma Levels ([1]; ref Diaz et al., 2005): 1.8 µM
- Max. Plasma Levels ([1]; ref Dumortier et al., 1998): 4.0 µM
- Max. Plasma Levels ([1]; ref Perry et al., 1991): 3.3 µM
- Max. Plasma Levels ([1]; ref Wong et al., 2006): 5.9 µM
- Max. Plasma Levels ([2]; ref Diaz et al., 2005): 574 ng/mL
- Max. Plasma Levels ([2]; ref Dumortier et al., 1998): 1310 ng/mL
- Max. Plasma Levels ([2]; ref Freudenreich et al., 1996): 880 ng/mL
- Max. Plasma Levels ([2]; ref Perry et al., 1991): 1088 ng/mL
- Max. Plasma Levels ([2]; ref Wong et al., 2006): 1920 ng/mL
- extent of inhibition of nicotine-evoked 86Rb+ efflux [8]: completely inhibited
- extent of inhibition of TC-1827-evoked 86Rb+ efflux [8]: fully inhibited
- effect on basal 86Rb+ efflux [8]: None of these compounds affected the basal
